Test results from PubChem BioAssay AID1259407 (Chemical Carcinogenesis Research Information System (CCRIS), 2018).
Active and inactive are the calls of the source. The rule behind the calls is not given here.

System: CCRIS mutagenicity, Ames/micronucleus/aberration tests
Assay: CCRIS mutagenicity studies
[1] = Test System: AMES SALMONELLA TYPHIMURIUM, Strain/Indicator: TA98, Metabolic Activation: NONE, Method: STANDARD PLATE
[2] = Test System: AMES SALMONELLA TYPHIMURIUM, Strain/Indicator: TA100, Metabolic Activation: NONE, Method: STANDARD PLATE
[3] = Test System: AMES SALMONELLA TYPHIMURIUM, Strain/Indicator: TA98, Metabolic Activation: RAT, LIVER, S-9, AROCLOR 1254, Method: STANDARD PLATE
[4] = Test System: AMES SALMONELLA TYPHIMURIUM, Strain/Indicator: TA100, Metabolic Activation: RAT, LIVER, S-9, AROCLOR 1254, Method: STANDARD PLATE
[5] = Test System: AMES SALMONELLA TYPHIMURIUM, Strain/Indicator: TA1535, Metabolic Activation: NONE, Method: STANDARD PLATE
[6] = Test System: AMES SALMONELLA TYPHIMURIUM, Strain/Indicator: TA1537, Metabolic Activation: NONE, Method: STANDARD PLATE
[7] = Test System: AMES SALMONELLA TYPHIMURIUM, Strain/Indicator: TA1538, Metabolic Activation: NONE, Method: STANDARD PLATE
[8] = Test System: AMES SALMONELLA TYPHIMURIUM, Strain/Indicator: TA98, Metabolic Activation: NONE, Method: PREINCUBATION
[9] = Test System: AMES SALMONELLA TYPHIMURIUM, Strain/Indicator: TA98, Metabolic Activation: RAT LIVER S-9, PHENOBARBITAL AND BETA-NAPHTHOFLAVONE, Method: PREINCUBATION
[10] = Test System: AMES SALMONELLA TYPHIMURIUM, Strain/Indicator: TA100, Metabolic Activation: NONE, Method: PREINCUBATION
[11] = Test System: AMES SALMONELLA TYPHIMURIUM, Strain/Indicator: TA100, Metabolic Activation: RAT LIVER S-9, PHENOBARBITAL AND BETA-NAPHTHOFLAVONE, Method: PREINCUBATION
[12] = Test System: AMES SALMONELLA TYPHIMURIUM, Strain/Indicator: TA1535, Metabolic Activation: NONE, Method: PREINCUBATION
[13] = Test System: AMES SALMONELLA TYPHIMURIUM, Strain/Indicator: TA1535, Metabolic Activation: RAT LIVER S-9, PHENOBARBITAL AND BETA-NAPHTHOFLAVONE, Method: PREINCUBATION
[14] = Test System: AMES SALMONELLA TYPHIMURIUM, Strain/Indicator: TA1537, Metabolic Activation: NONE, Method: PREINCUBATION
[15] = Test System: AMES SALMONELLA TYPHIMURIUM, Strain/Indicator: TA1537, Metabolic Activation: RAT LIVER S-9, PHENOBARBITAL AND BETA-NAPHTHOFLAVONE, Method: PREINCUBATION
[16] = Test System: AMES SALMONELLA TYPHIMURIUM, Strain/Indicator: TA1538, Metabolic Activation: NONE, Method: PREINCUBATION
[17] = Test System: AMES SALMONELLA TYPHIMURIUM, Strain/Indicator: TA1538, Metabolic Activation: RAT LIVER S-9, PHENOBARBITAL AND BETA-NAPHTHOFLAVONE, Method: PREINCUBATION
[18] = Test System: E.COLI, Strain/Indicator: WP2UVRA, Metabolic Activation: NONE, Method: PREINCUBATION
[19] = Test System: E.COLI, Strain/Indicator: WP2UVRA, Metabolic Activation: RAT LIVER S-9, PHENOBARBITAL AND BETA-NAPHTHOFLAVONE, Method: PREINCUBATION

## CC(=O)ON(OCc1ccccc1)C(=O)c1ccccc1
[1]
  mutagenic call: active; positive
[2]
  mutagenic call: active; positive
Test System: AMES SALMONELLA TYPHIMURIUM, Strain/Indicator: TA100, Metabolic Activation: RAT, S-9, AROCLOR, Method: STANDARD PLATE
  mutagenic call: active; positive

## CC(C)(O)CCc1ccc(O)c2c(=O)c3c(O)c4c(cc3oc12)O[C@H]1OC=C[C@@]41O
[1]
  mutagenic call: inactive; negative
[3]
  mutagenic call: active; positive
[2]
  mutagenic call: inactive; negative
[4]
  mutagenic call: active; positive

## Fc1ccc2c3c(cccc13)-c1c-2ccc2ccccc12
Test System: AMES SALMONELLA TYPHIMURIUM, Strain/Indicator: TA97A, Metabolic Activation: RAT, LIVER, S-9, AROCLOR 1254, Method: PREINCUBATION
  mutagenic call: active; positive
Test System: AMES SALMONELLA TYPHIMURIUM, Strain/Indicator: TA98, Metabolic Activation: RAT, LIVER, S-9, AROCLOR 1254, Method: PREINCUBATION
  mutagenic call: active; positive
Test System: AMES SALMONELLA TYPHIMURIUM, Strain/Indicator: TA100, Metabolic Activation: RAT, LIVER, S-9, AROCLOR 1254, Method: PREINCUBATION
  mutagenic call: active; positive

## CCOC(=O)COc1ccc2c(=O)cc(-c3ccccc3)oc2c1
[1]
  mutagenic call: inactive; negative
Test System: AMES SALMONELLA TYPHIMURIUM, Strain/Indicator: TA98, Metabolic Activation: RAT, LIVER, S-9, PHENOBARBITAL, Method: STANDARD PLATE
  mutagenic call: inactive; negative
[2]
  mutagenic call: inactive; negative
Test System: AMES SALMONELLA TYPHIMURIUM, Strain/Indicator: TA100, Metabolic Activation: RAT, LIVER, S-9, PHENOBARBITAL, Method: STANDARD PLATE
  mutagenic call: inactive; negative
[5]
  mutagenic call: inactive; negative
Test System: AMES SALMONELLA TYPHIMURIUM, Strain/Indicator: TA1535, Metabolic Activation: RAT, LIVER, S-9, PHENOBARBITAL, Method: STANDARD PLATE
  mutagenic call: inactive; negative
[6]
  mutagenic call: inactive; negative
Test System: AMES SALMONELLA TYPHIMURIUM, Strain/Indicator: TA1537, Metabolic Activation: RAT, LIVER, S-9, PHENOBARBITAL, Method: STANDARD PLATE
  mutagenic call: inactive; negative
[7]
  mutagenic call: inactive; negative
Test System: AMES SALMONELLA TYPHIMURIUM, Strain/Indicator: TA1538, Metabolic Activation: RAT, LIVER, S-9, PHENOBARBITAL, Method: STANDARD PLATE
  mutagenic call: inactive; negative

## O=C(O)CC[C@H](NC(=O)COc1cc(Cl)c(Cl)cc1Cl)C(=O)O
Test System: AMES SALMONELLA TYPHIMURIUM, Strain/Indicator: TA97, Metabolic Activation: NONE, Method: STANDARD PLATE
  mutagenic call: inactive; negative
Test System: AMES SALMONELLA TYPHIMURIUM, Strain/Indicator: TA97, Metabolic Activation: RAT, LIVER, S-9, AROCLOR 1254, Method: STANDARD PLATE
  mutagenic call: inactive; negative
[1]
  mutagenic call: inactive; negative
[3]
  mutagenic call: inactive; negative
[2]
  mutagenic call: inactive; negative
[4]
  mutagenic call: inactive; negative
[5]
  mutagenic call: inactive; negative
Test System: AMES SALMONELLA TYPHIMURIUM, Strain/Indicator: TA1535, Metabolic Activation: RAT, LIVER, S-9, AROCLOR 1254, Method: STANDARD PLATE
  mutagenic call: inactive; negative
[7]
  mutagenic call: inactive; negative
Test System: AMES SALMONELLA TYPHIMURIUM, Strain/Indicator: TA1538, Metabolic Activation: RAT, LIVER, S-9, AROCLOR 1254, Method: STANDARD PLATE
  mutagenic call: inactive; negative

## Nc1ccc(S(=O)(=O)O)c2ccccc12
[8]
  mutagenic call: inactive; negative
[9]
  mutagenic call: inactive; negative
[10]
  mutagenic call: inactive; negative
[11]
  mutagenic call: inactive; negative
[12]
  mutagenic call: inactive; negative
[13]
  mutagenic call: inactive; negative
[14]
  mutagenic call: inactive; negative
[15]
  mutagenic call: inactive; negative
[16]
  mutagenic call: inactive; negative
[17]
  mutagenic call: inactive; negative
[18]
  mutagenic call: inactive; negative
[19]
  mutagenic call: inactive; negative

## c1ccc2c(c1)-c1cccc3c1c-2cc1ccccc13
Test System: AMES SALMONELLA TYPHIMURIUM, Strain/Indicator: TA98, Metabolic Activation: HAMSTER, LIVER, S-9, AROCLOR 1254 (10%), Method: PREINCUBATION
  mutagenic call: active; positive
Test System: AMES SALMONELLA TYPHIMURIUM, Strain/Indicator: TA98, Metabolic Activation: MOUSE, LIVER, S-9, AROCLOR 1254, Method: STANDARD PLATE
  mutagenic call: active; positive
[8]
  mutagenic call: inactive; negative
Test System: AMES SALMONELLA TYPHIMURIUM, Strain/Indicator: TA98, Metabolic Activation: RAT, LIVER, S-9, AROCLOR 1254 (10%), Method: PREINCUBATION
  mutagenic call: inactive; negative
Test System: AMES SALMONELLA TYPHIMURIUM, Strain/Indicator: TA100, Metabolic Activation: HAMSTER, LIVER, S-9, AROCLOR 1254 (10%), Method: PREINCUBATION
  mutagenic call: active; positive
[10]
  mutagenic call: inactive; negative
Test System: AMES SALMONELLA TYPHIMURIUM, Strain/Indicator: TA100, Metabolic Activation: RAT, LIVER, S-9, AROCLOR 1254
  mutagenic call: active; positive
Test System: AMES SALMONELLA TYPHIMURIUM, Strain/Indicator: TA100, Metabolic Activation: RAT, LIVER, S-9, AROCLOR 1254 (10%), Method: PREINCUBATION
  mutagenic call: active; positive
[4]
  mutagenic call: active; positive

## Cc1cc(O)c2c(c1)C(=O)c1cc(O)c(O)c(O)c1C2=O
[6]
  mutagenic call: inactive; negative

## N#Cc1ccccc1C#N
[8]
  mutagenic call: inactive; negative
[9]
  mutagenic call: inactive; negative
[10]
  mutagenic call: inactive; negative
[11]
  mutagenic call: inactive; negative
[12]
  mutagenic call: inactive; negative
[13]
  mutagenic call: inactive; negative
[14]
  mutagenic call: inactive; negative
[15]
  mutagenic call: inactive; negative
[16]
  mutagenic call: inactive; negative
[17]
  mutagenic call: inactive; negative
[18]
  mutagenic call: inactive; negative
[19]
  mutagenic call: inactive; negative

## COC(=O)C12C[C@@]1(C=O)C(C=O)=C[C@@H]1CC(C)(C)C[C@@H]12 (some centres not stated)
[1]
  mutagenic call: active; positive
[2]
  mutagenic call: active; positive
Test System: AMES SALMONELLA TYPHIMURIUM, Strain/Indicator: TA2637, Metabolic Activation: NONE, Method: STANDARD PLATE
  mutagenic call: active; positive
